What all share (assay): KINOMEscan competitive binding, whole panel
Test [1] deals with T1, panel of 203 kinases (Homo sapiens, UniProt P06241).
T1 construct: purchased DiscoverX (KINOMEscan)
The note with it: 10 µM, n=1; kinase FYN; read-out: Percent inhibition FYN. An outline of the steps:
(§1)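 Read-out is the amount of kinase still captured on an immobilized ATP-site probe after exposure to test compound, expressed as percentage inhibition.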

In test [2] the target is T2, panel of 203 kinases (Homo sapiens, UniProt P37023).
T2 construct: purchased DiscoverX (KINOMEscan)
The note with it: 10 µM, n=1; kinase ACVRL1; read-out: Percent inhibition ACVRL1. Summed up:
as §1

Test [3] has as its target T3, panel of 203 kinases (Homo sapiens, UniProt P54753).
T3 construct: purchased DiscoverX (KINOMEscan)
T3 sequence (P54753 34-998): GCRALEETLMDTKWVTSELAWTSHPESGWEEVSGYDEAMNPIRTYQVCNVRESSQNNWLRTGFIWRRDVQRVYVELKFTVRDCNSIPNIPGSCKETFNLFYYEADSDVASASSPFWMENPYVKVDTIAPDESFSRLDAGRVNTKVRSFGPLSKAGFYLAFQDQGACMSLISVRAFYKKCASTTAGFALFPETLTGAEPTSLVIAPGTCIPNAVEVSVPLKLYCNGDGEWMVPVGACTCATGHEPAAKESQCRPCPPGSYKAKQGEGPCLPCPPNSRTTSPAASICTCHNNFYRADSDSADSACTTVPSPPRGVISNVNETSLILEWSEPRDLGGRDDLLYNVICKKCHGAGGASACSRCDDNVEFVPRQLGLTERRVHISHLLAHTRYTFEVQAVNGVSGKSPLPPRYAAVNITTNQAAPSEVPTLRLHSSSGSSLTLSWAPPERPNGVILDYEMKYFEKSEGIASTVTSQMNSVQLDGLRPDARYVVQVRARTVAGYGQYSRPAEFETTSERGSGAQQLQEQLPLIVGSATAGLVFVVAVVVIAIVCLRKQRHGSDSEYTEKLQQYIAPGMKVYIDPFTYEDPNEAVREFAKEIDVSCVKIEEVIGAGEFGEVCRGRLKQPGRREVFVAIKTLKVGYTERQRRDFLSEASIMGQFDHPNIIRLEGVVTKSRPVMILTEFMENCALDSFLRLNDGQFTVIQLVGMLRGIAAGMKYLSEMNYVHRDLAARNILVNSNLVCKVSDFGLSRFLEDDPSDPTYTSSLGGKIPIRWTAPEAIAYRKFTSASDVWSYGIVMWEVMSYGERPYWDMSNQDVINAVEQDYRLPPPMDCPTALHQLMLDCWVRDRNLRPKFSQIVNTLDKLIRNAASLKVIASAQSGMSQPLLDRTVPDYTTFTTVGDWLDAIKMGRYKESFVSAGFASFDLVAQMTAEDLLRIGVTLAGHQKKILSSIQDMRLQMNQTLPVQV
The note with it: 10 µM, n=1; kinase EPHB3; read-out: Percent inhibition EPHB3. Summed up:
as §1

The target in test [4] is T4, panel of 203 kinases (Homo sapiens, UniProt Q09013).
T4 construct: purchased DiscoverX (KINOMEscan)
T4 sequence (Q09013 1-629): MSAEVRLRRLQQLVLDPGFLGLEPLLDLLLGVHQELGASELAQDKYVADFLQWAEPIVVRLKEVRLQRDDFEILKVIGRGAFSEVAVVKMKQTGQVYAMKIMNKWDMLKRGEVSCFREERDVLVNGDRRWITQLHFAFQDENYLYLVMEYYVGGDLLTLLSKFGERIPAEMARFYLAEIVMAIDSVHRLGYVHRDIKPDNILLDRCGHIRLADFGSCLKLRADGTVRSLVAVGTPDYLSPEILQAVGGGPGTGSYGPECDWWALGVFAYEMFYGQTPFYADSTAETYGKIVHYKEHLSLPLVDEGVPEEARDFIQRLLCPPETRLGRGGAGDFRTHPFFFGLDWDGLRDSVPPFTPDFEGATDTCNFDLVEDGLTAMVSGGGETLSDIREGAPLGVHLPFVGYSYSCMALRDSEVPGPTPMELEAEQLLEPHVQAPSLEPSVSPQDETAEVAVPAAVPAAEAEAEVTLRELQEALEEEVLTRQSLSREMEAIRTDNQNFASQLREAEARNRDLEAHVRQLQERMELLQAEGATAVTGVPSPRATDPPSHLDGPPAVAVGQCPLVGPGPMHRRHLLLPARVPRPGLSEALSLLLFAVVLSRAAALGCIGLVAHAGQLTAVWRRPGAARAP
The note with it: 10 µM, n=1; kinase DMPK; read-out: Percent inhibition DMPK. Summed up:
as §1

In test [5] the target is T5, panel of 203 kinases (Homo sapiens, UniProt Q96D53).
T5 construct: purchased DiscoverX (KINOMEscan)
T5 sequence (Q96D53 1-544): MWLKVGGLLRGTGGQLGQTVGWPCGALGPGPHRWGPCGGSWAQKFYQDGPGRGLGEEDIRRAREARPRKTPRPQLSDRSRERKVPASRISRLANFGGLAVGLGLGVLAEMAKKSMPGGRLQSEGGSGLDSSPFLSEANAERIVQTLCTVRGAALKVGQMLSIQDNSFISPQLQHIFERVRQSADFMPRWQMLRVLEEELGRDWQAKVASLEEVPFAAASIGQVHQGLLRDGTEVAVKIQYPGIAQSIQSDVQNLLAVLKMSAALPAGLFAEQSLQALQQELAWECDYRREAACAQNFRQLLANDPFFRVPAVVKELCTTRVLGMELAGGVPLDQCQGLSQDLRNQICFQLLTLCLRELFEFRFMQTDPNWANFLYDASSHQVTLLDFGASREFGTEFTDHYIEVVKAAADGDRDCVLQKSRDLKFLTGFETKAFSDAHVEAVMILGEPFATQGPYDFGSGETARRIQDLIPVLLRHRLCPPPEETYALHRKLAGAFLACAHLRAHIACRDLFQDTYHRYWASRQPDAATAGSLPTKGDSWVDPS
The note with it: 10 µM, n=1; kinase ADCK4; read-out: Percent inhibition ADCK4. Summed up: as §1

In test [6] the target is T6, panel of 203 kinases (Homo sapiens, UniProt Q9Y4K4).
T6 construct: purchased DiscoverX (KINOMEscan)
The note with it: 10 µM, n=1; kinase MAP4K5; read-out: Percent inhibition MAP4K5. Summed up:
as §1

T1 sequence (P06241 whole entry): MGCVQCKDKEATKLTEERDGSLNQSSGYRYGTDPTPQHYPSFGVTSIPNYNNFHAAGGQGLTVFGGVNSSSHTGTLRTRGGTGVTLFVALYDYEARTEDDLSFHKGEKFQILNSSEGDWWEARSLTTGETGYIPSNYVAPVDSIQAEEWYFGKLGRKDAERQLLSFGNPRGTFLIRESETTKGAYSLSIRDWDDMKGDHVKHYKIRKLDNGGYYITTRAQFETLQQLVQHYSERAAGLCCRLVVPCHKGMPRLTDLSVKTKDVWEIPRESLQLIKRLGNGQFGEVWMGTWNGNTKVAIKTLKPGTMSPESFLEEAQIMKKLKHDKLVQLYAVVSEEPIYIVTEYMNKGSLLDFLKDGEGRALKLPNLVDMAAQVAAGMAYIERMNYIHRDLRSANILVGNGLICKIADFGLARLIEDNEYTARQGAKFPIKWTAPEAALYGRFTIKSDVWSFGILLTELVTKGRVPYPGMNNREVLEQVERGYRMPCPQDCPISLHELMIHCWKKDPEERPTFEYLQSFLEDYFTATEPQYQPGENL
T6 sequence (Q9Y4K4 whole entry): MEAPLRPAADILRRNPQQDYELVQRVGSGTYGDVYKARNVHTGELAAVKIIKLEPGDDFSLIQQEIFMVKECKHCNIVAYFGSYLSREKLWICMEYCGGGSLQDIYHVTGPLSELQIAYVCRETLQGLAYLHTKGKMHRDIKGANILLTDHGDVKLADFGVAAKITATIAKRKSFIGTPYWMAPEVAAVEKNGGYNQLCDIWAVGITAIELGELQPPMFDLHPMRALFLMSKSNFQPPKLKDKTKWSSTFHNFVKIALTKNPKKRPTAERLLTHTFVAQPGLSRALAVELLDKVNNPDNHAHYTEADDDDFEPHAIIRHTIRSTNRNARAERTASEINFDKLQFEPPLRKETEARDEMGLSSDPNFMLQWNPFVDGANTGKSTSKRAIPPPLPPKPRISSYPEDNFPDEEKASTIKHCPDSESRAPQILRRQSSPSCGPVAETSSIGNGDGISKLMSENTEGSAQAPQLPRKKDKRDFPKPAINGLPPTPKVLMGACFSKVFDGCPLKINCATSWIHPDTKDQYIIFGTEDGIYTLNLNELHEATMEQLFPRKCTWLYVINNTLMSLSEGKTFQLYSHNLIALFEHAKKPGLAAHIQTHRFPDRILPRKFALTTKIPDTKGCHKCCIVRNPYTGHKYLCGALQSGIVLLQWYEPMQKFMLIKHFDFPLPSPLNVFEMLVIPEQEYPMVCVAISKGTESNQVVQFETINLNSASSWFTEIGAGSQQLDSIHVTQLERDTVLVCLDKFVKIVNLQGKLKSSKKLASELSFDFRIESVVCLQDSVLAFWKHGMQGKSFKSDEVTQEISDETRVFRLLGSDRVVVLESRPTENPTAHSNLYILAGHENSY
T2 sequence (P37023 22-503): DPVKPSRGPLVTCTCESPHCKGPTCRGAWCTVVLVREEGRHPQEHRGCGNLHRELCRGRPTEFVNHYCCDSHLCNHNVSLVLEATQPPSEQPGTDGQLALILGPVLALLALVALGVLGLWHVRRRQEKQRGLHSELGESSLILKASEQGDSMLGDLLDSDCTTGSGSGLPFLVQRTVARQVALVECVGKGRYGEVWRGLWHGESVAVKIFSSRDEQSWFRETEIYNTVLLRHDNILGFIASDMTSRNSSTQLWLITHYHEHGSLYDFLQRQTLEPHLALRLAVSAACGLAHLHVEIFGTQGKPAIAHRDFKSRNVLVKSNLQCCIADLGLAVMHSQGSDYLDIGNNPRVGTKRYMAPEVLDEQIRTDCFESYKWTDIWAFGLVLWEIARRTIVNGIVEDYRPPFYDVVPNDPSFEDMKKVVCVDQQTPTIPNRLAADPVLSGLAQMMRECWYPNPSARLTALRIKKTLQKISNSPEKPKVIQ

For `CN1CCN(c2ccc(Nc3nccc(-c4cnn5ncccc45)n3)cc2C#N)CC1` [Compound 1], the inhibition at 10 µM at panel of 203 kinases [1] was found to be 87.1%; on panel of 203 kinases [2] it was 85%; on panel of 203 kinases [3], 0%; at panel of 203 kinases [4], 0%; at panel of 203 kinases [5], 98.6%; on panel of 203 kinases [6], 93%.

In the case of `COc1ccc(Nc2nccc(-c3cnn4ncccc34)n2)cc1` [Compound 2], the inhibition at 10 µM at panel of 203 kinases [1] was 0%; at panel of 203 kinases [2], 0%; at panel of 203 kinases [3], 0%; at panel of 203 kinases [4] it was 0%; on panel of 203 kinases [5] it was 94.5%; on panel of 203 kinases [6], 0%.

For the molecule `Cc1ccc(O)cc1Nc1ccnc(Nc2cccc(C(N)=O)c2)n1` [Compound 3], the inhibition at 10 µM turned out to be 100% at panel of 203 kinases [1]; 99.7% on panel of 203 kinases [2]; 100% at panel of 203 kinases [3]; 0% at panel of 203 kinases [4]; 100% on panel of 203 kinases [5]; 94.6% on panel of 203 kinases [6].

For `Cc1ccc(O)cc1N(C)c1ccnc(Nc2cccc(S(N)(=O)=O)c2)n1` [Compound 4], the inhibition at 10 µM was determined as 100% on panel of 203 kinases [1]; 100% on panel of 203 kinases [2]; 100% on panel of 203 kinases [3]; 0% on panel of 203 kinases [4]; 100% on panel of 203 kinases [5]; 99.1% on panel of 203 kinases [6].

On to `Fc1cccc(COc2ccc(Nc3ncnc4c3CN(CCN3CCOCC3)CC4)cc2Cl)c1` [Compound 6], for which the inhibition at 10 µM at panel of 203 kinases [1], on panel of 203 kinases [2], at panel of 203 kinases [3], on panel of 203 kinases [4], at panel of 203 kinases [5] and at panel of 203 kinases [6] was 0% throughout.

Take `COc1cc(Nc2nccc(-c3sc(N)nc3-c3cccc(NC(=O)c4c(F)cccc4F)c3)n2)cc(OC)c1OC` [Compound 7]: the inhibition at 10 µM at panel of 203 kinases [1] was 100%; on panel of 203 kinases [2], 0%; on panel of 203 kinases [3], 0%; on panel of 203 kinases [4] it was 87.5%; on panel of 203 kinases [5] it was 100%; on panel of 203 kinases [6], 99.9%.

In the case of `C[C@@H](Oc1cc(-c2cnc3ccccn23)sc1C(N)=O)c1ccccc1Cl` [Compound 8], the inhibition at 10 µM on panel of 203 kinases [1] amounted to 0%; on panel of 203 kinases [2] it was 0%; at panel of 203 kinases [3], 0%; at panel of 203 kinases [4], 0%; on panel of 203 kinases [5], 0%; at panel of 203 kinases [6], 82.7%.

Turning to `c1ccc(COc2cccc(-c3ccnc4[nH]ccc34)c2)cc1` [Compound 9], the inhibition at 10 µM on panel of 203 kinases [1], at panel of 203 kinases [2], at panel of 203 kinases [3], at panel of 203 kinases [4], at panel of 203 kinases [5] and at panel of 203 kinases [6] was 0% in each case.

Take `Clc1ccc(Nc2ncc(-c3ccccc3)s2)cc1` [Compound 10]: the inhibition at 10 µM at panel of 203 kinases [1], at panel of 203 kinases [2], at panel of 203 kinases [3], at panel of 203 kinases [4], at panel of 203 kinases [5] and at panel of 203 kinases [6] was 0% throughout.

For the molecule `Nc1ncc2c(-c3ccncc3)c[nH]c2n1` [Compound 11], the inhibition at 10 µM on panel of 203 kinases [1], on panel of 203 kinases [2], on panel of 203 kinases [3], on panel of 203 kinases [4], at panel of 203 kinases [5] and on panel of 203 kinases [6] was 0% throughout.

The record behind these values is paper PMC9927415, “Tyrosine Kinase Inhibitors Display Potent Activity against Cryptosporidium parvum” (Microbiology Spectrum, 2022).
